According to patent US11981686B2, “Urea compound having substituent” (DAIICHI SANKYO COMPANY, LIMITED, priority 2019, dated 2024):

What follows are compounds tested against SIRT6 enzyme (Homo sapiens, UniProt Q8N6T7) (assay: Measurement of deacetylation activity (SIRT6, AlphaLISA, H3K9(Ac) peptide)). Conditions: SIRT6 25 ng/mL, H3K9(Ac) biotin peptide 2 nM, NAD 10 μM, room temperature 30 minutes, duplicate.
Assay type: biochemical
Protocol: The reaction was performed in duplicate using a white 384-well plate (3824, Corning or 6008350, PerkinElmer) at a final reaction liquid volume of 20.1 μL. As a control for calculating the enzyme activity, the enzyme-added (DMSO (+)) and enzyme-free (DMSO (−)) wells were set at n=8. Test substances (examples of final concentrations: 0.046, 0.14, 0.41, 1.2, 3.7, 11, 33, and 100 μM) at a concentration of 100 times or 0.1 μL of DMSO was dispensed into the plate and 5 μL of SIRT6 enzyme (prepared by Daiichi Sankyo RD Novare Co., Ltd., final concentration: 25 ng/mL) diluted with an assay buffer (10 mM Tris-HCl pH of 8.0, 0.1% BSA, 0.01% Tween 20, 1 mM DTT, 12.5% Glycerol) was added thereto. The enzymatic reaction was started by adding 5 μL of a mixed solution [Lys(Ac)9]-Histone H3 (1-21)-NH2, H3K9 (Ac), biotin-labeled, amide (AnaSpec, AS-64190, final concentration: 2 nM) and β-nicotinamide adenine dinucleotide (Sigma-Aldrich, N8285-15VL, final concentration: 10 μM), and the reaction was performed at room temperature for 30 minutes. 10 μL of a mixed solution of nicotinamide (Sigma-Aldrich, 72340-100G, final concentration: 100 mM) prepared with AlphaLISA Epigenetics Buffer (PerkinElmer, AL008C), AlphaLISA Anti-unmodified Histone H3 Lysine 9/Lysine 27 (H3K9/K27) Acceptor Beads (PerkinElmer, AL138, final concentration: 10 μg/mL), and AlphaScreen Streptavidin Donor beads (PerkinElmer, 6760002, final concentration: 5 μg/mL) was added thereto, the reaction was performed at room temperature for 60 minutes and then stopped, and acetylation was detected. The emission intensity was measured by EnVision (PerkinElmer).
The relative enzyme activity (%) of the test substance was calculated by the following equation. Relative enzyme activity (%)=[(emission intensity of test substance-added well−emission intensity of DMSO (−) well)/(emission intensity of DMSO (+) well−emission intensity of DMSO (−) well)]×100
The EC150 (the concentration of the compound showing a relative enzyme activity of 150%) of the test substance was calculated based on Sigmoidal dose-response (variable slope) of GraphPad Prism (GraphPad Software) using the value of the relative enzyme activity (%) at each concentration, and the results are listed in Tables 1-1 to 1-5.

Chain of SIRT6 enzyme (Q8N6T7 whole entry, species assumed): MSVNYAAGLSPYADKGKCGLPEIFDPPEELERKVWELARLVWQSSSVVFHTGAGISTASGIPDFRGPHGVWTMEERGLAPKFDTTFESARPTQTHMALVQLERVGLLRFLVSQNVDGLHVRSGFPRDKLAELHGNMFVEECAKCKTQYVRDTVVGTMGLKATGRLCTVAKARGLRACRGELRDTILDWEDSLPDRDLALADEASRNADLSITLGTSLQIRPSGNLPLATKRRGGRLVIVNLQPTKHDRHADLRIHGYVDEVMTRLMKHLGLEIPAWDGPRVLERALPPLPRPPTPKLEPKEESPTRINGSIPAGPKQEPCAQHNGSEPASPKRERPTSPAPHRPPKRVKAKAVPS

| Structure (SMILES) | EC150 (the concentration of the compound showing a relative enzyme activity of 150%) [μm] |
| --- | --- |
| COc1cccc(-c2cnc(N3[C@@H]4COC[C@H]3c3sc(NC(=O)N[C@@H]5CCOC5)nc3C4)o2)n1 [Example 185, N-{(4S,8S)-10-[5-(6-methoxypyridin-2-yl)-1,3-oxazol-2-yl]-4,7,8,9-tetrahydro-5H-4,8-epiminooxocino[5,4-d][1,3]thiazol-2-yl}-N′-[(3R)-oxolan-3-yl]urea] | 0.4 |
| CNC(=O)Nc1nc2c(s1)[C@@H]1COC[C@H](C2)N1c1ncc(-c2cccc(OC)n2)o1 [Example 15, N-{(4S,8S)-10-[5-(6-methoxypyridin-2-yl)-1,3-oxazol-2-yl]-4,7,8,9-tetrahydro-5H-4,8-epiminooxocino[5,4-d][1,3]thiazol-2-yl}-N′-methylurea] | 1.1 |
| CCOc1ccc2oc(N3[C@@H]4COC[C@H]3c3sc(NC(=O)N[C@H](C)CO)nc3C4)nc2c1 [Example 52, N-[(4S,8S)-10-(5-ethoxy-1,3-benzoxazol-2-yl)-4,7,8,9-tetrahydro-5H-4,8-epiminooxocino[5,4-d][1,3]thiazol-2-yl]-N′-[(2R)-1-hydroxypropan-2-yl]urea] | 1.9 |
| C[C@@H](O)CNC(=O)Nc1nc2c(s1)[C@@H]1COC[C@H](C2)N1c1cc(-c2ccc(F)cc2)on1 [Example 65, N-{(4S,8S)-10-[5-(4-fluorophenyl)-1,2-oxazol-3-yl]-4,7,8,9-tetrahydro-5H-4,8-epiminooxocino[5,4-d][1,3]thiazol-2-yl}-N′-[(2R)-2-hydroxypropyl]urea] | 2.1 |
| C[C@H](O)CNC(=O)Nc1nc2c(s1)C1COCC(C2)N1c1nc(-c2ccc(F)cc2)no1 (stereo partly drawn) [Example 81, N-{10-[3-(4-fluorophenyl)-1,2,4-oxadiazol-5-yl]-4,7,8,9-tetrahydro-5H-4,8-epiminooxocino[5,4-d][1,3]thiazol-2-yl}-N′-[(2S)-2-hydroxypropyl]urea] | 1.4 |
| Cc1cc2nc(N3[C@@H]4COC[C@H]3c3sc(NC(=O)N[C@H](C)CO)nc3C4)oc2cc1C [Example 148, N-[(4S,8S)-10-(5,6-dimethyl-1,3-benzoxazol-2-yl)-4,7,8,9-tetrahydro-5H-4,8-epiminooxocino[5,4-d][1,3]thiazol-2-yl]-N′-[(2R)-1-hydroxypropan-2-yl]urea] | 0.95 |
| CNC(=O)Nc1nc2c(s1)C1COCC(C2)N1c1nnc(-c2cccc(C(F)F)c2)o1 (stereo not drawn) [Example 109, N-(10-{5-[3-(difluoromethyl)phenyl]-1,3,4-oxadiazol-2-yl}-4,7,8,9-tetrahydro-5H-4,8-epiminooxocino[5,4-d][1,3]thiazol-2-yl)-N′-methylurea] | 1.4 |
| O=C(Nc1nc2c(s1)C1COCC(C2)N1c1nc(-c2ccc(F)cc2)no1)N[C@H]1C[C@H](CO)C1 (stereo partly drawn) [Example 84, N-{10-[3-(4-fluorophenyl)-1,2,4-oxadiazol-5-yl]-4,7,8,9-tetrahydro-5H-4,8-epiminooxocino[5,4-d][1,3]thiazol-2-yl}-N′-[(1r,3r)-3-(hydroxymethyl)cyclobutyl]urea] | 0.62 |
| Cc1cc2nc(N3[C@@H]4COC[C@H]3c3sc(NC(=O)NCC(C)(C)O)nc3C4)oc2cc1C#N [Example 51, N-[(4S,8S)-10-(6-cyano-5-methyl-1,3-benzoxazol-2-yl)-4,7,8,9-tetrahydro-5H-4,8-epiminooxocino[5,4-d][1,3]thiazol-2-yl]-N′-(2-hydroxy-2-methylpropyl)urea] | 0.47 |
| CNC(=O)Nc1nc2c(s1)[C@@H]1CC[C@H](C2)N1c1nc(-c2ccc(F)cc2)no1 (relative stereo) [Example 10, N-{(5R*,8S*)-9-[3-(4-fluorophenyl)-1,2,4-oxadiazol-5-yl]-5,6,7,8-tetrahydro-4H-5,8-epiminocyclohepta[d][1,3]thiazol-2-yl}-N′-methylurea] | 1.0 |
| C[C@H](CO)NC(=O)Nc1nc2c(s1)C1COCC(C2)N1c1nc(-c2ccc(F)cc2)no1 (stereo partly drawn) [Example 18, N-{10-[3-(4-fluorophenyl)-1,2,4-oxadiazol-5-yl]-4,7,8,9-tetrahydro-5H-4,8-epiminooxocino[5,4-d][1,3]thiazol-2-yl}-N′-[(2R)-1-hydroxypropan-2-yl]urea] | 0.95 |
| C[C@@H](O)CNC(=O)Nc1nc2c(s1)[C@@H]1COC[C@H](C2)N1c1ncc(-c2cccc(C(F)F)c2)o1 [Example 72, N-[(4S,8S)-10-{5-[3-(difluoromethyl)phenyl]-1,3-oxazol-2-yl}-4,7,8,9-tetrahydro-5H-4,8-epiminooxocino[5,4-d][1,3]thiazol-2-yl]-N′-[(2R)-2-hydroxypropyl]urea] | 0.36 |
| C[C@H](CO)NC(=O)Nc1nc2c(s1)[C@@H]1COC[C@H](C2)N1c1nc2cc(F)c(F)cc2o1 [Example 42, N-[(4S,8S)-10-(5,6-difluoro-1,3-benzoxazol-2-yl)-4,7,8,9-tetrahydro-5H-4,8-epiminooxocino[5,4-d][1,3]thiazol-2-yl]-N′-[(2R)-1-hydroxypropan-2-yl]urea] | 1.3 |
| C[C@H](CO)NC(=O)Nc1nc2c(s1)[C@@H]1COC[C@H](C2)N1c1nc2cc(F)ccc2o1 [Example 39, N-[(4S,8S)-10-(5-fluoro-1,3-benzoxazol-2-yl)-4,7,8,9-tetrahydro-5H-4,8-epiminooxocino[5,4-d][1,3]thiazol-2-yl]-N′-[(2R)-1-hydroxypropan-2-yl]urea] | 2.5 |
| CNC(=O)Nc1nc2c(s1)C1CN(C(C)=O)CC(C2)N1c1nc2cc(F)ccc2o1 (stereo not drawn) [Example 130, N-[6-acetyl-10-(5-fluoro-1,3-benzoxazol-2-yl)-4,5,6,7,8,9-hexahydro-4,8-epimino[1,3]thiazolo[5,4-d]azocin-2-yl]-N′-methylurea] | 3.7 |
| CNC(=O)Nc1nc2c(s1)C1CN(C(C)=O)CC(C2)N1c1ncc(-c2cccc(OC)n2)o1 (stereo not drawn) [Example 129, N-{6-acetyl-10-[5-(6-methoxypyridin-2-yl)-1,3-oxazol-2-yl]-4,5,6,7,8,9-hexahydro-4,8-epimino[1,3]thiazolo[5,4-d]azocin-2-yl}-N′-methylurea] | 0.38 |
| CNC(=O)Nc1nc2c(s1)C1CN(C(C)=O)CC(C2)N1c1nc(-c2cccc(F)c2)no1 (stereo not drawn) [Example 138, N-{6-acetyl-10-[3-(3-fluorophenyl)-1,2,4-oxadiazol-5-yl]-4,5,6,7,8,9-hexahydro-4,8-epimino[1,3]thiazolo[5,4-d]azocin-2-yl}-N′-methylurea] | 0.46 |
| C[C@H](CO)NC(=O)Nc1nc2c(s1)CN(c1nc(C(C)(C)OCC(F)(F)F)no1)CC2 [Example 91, N-[(2R)-1-hydroxypropan-2-yl]-N′-(5-{3-[2-(2,2,2-trifluoroethoxy)propan-2-yl]-1,2,4-oxadiazol-5-yl}-4,5,6,7-tetrahydro[1,3]thiazolo[5,4-c]pyridin-2-yl)urea] | 0.81 |
